In this test the target is T1, FPRL-1 (Homo sapiens, UniProt P25090).
T1 construct: expressed in transfected cells
T1 sequence (P25090 1-351): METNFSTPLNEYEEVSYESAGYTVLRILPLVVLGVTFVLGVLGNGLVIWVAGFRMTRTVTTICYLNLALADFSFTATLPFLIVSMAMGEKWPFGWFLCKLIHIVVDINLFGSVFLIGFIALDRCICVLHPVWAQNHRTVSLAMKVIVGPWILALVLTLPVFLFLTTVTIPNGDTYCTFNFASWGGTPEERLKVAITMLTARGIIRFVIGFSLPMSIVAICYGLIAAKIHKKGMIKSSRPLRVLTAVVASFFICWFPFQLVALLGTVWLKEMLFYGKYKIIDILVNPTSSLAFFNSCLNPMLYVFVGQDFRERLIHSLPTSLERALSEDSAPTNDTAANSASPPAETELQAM
Put plainly: compound-induced calcium activity on FLIPR Tetra in CHO-Gα16 cells stably expressing FPRL1. It is filed as cell-based. The conditions noted are these: for FPRL-1 Ga16-CHO (Rel. eff.): relative efficacy; for pEC50: tested 0.61 to 10,000 nM, read-out: FPRL-1 Ga16-CHO EC50. The method, then:
CHO-Gα16 cells stably expressing FPRL1 were cultured in (F12, 10% FBS, 1% PSA, 400 μg/ml geneticin and 50 μg/ml hygromycin) and HEK-Gqi5 cells stable expressing FPR1 were cultured in (DMEM high glucose, 10% FBS, 1% PSA, 400 μg/ml geneticin and 50 μg/ml hygromycin). In general, the day before the experiment, 18,000 cells/well were plated in a 384-well clear bottom poly-d-lysine coated plate. The following day the screening compound-induced calcium activity was assayed on the FLIPR^Tetra. The drug plates were prepared in 384-well microplates using the EP3 and the MultiPROBE robotic liquid handling systems. Compounds were tested at concentrations ranging from 0.61 to 10,000 nM. Results are expressed as EC50 (nM) and efficacy values.

pEC50: −log10 of the molar value.

As usually defined, the pEC50 is the EC50 on a negative log10 scale, so that one unit is a factor of ten.

As for `CC(C)C[C@H](NC(=O)Nc1ccc(SC(F)(F)F)cc1)C(=O)NCC(=O)OC(C)(C)C` [Compound 71, tert-butyl ({(2S)-4-methyl-2-[({4-[(trifluoromethyl)sulfanyl]phenyl}carbamoyl)amino]pentanoyl}amino)acetate], the “FPRL-1 Ga16-CHO (Rel. eff.)” value is “(0.78)” and the pEC50 is 5.51.
The corresponding values for `CC(C)C[C@H](NC(=O)Nc1ccc(Br)cc1)C(=O)N[C@@H](C)C(=O)O` [Compound 43, (2S)-2-{[(2S)-2-{[(4-bromophenyl)carbamoyl]amino}-4-methylpentanoyl]amino}propanoic acid] are “(1.05)” and 7.96.
The corresponding values for `CC[C@H](C)[C@H](NC(=O)Nc1ccc(Br)cc1)C(=O)NCC(=O)O` [Compound 4, {[(2S,3S)-2-{[(4-bromophenyl)carbamoyl]amino}-3-methylpentanoyl]amino}acetic acid] are “(1.00)” and 8.57.
Turning to `CC(C)(C)OC(=O)CNC(=O)C(C)(C)NC(=O)Nc1ccc(Br)cc1` [Compound 59, tert-butyl {[2-{[(4-bromophenyl)carbamoyl]amino}-2-methylpropanoyl]amino}acetate], the “FPRL-1 Ga16-CHO (Rel. eff.)” value was “(1.02)” and the pEC50 is 6.94.
Turning to `CC[C@H](C)[C@H](NC(=O)Nc1ccc(Br)cc1F)C(=O)NCC(=O)OC(C)(C)C` [Compound 10, tert-butyl{[(2S,3S)-2-{[(4-bromo-2-fluorophenyl)carbamoyl]amino}-3-methylpentanoyl]amino}acetate], the “FPRL-1 Ga16-CHO (Rel. eff.)” value is given as “(0.86)” and the pEC50 was 6.12.
For `CCC[C@H](NC(=O)Nc1ccc(Br)cc1F)C(=O)NCC(N)=O` [Compound 31, (2S)-N-(2-amino-2-oxoethyl)-2-{[(4-bromo-2-fluorophenyl]carbamoyl}amino)pentanamide], in that order: “(0.98)” and 8.28.
`CCC[C@H](NC(=O)Nc1ccc(Br)cc1F)C(=O)NCC(=O)OC(C)(C)C` [tert-butyl {[(2S)-2-{[(4-bromo-2-fluorophenyl)carbamoyl]amino}pentanoyl]amino}acetate]: the “FPRL-1 Ga16-CHO (Rel. eff.)” value is on record as “(0.95)” and the pEC50 was 7.08.
The corresponding values for `CC(C)C[C@H](NC(=O)Nc1ccc(C(F)(F)F)cc1)C(=O)NC(C)(C)C(=O)O` [Compound 69, 2-methyl-2-{[(2S)-4-methyl-2-({[4-(trifluoromethyl)phenyl]carbamoyl}amino)pentanoyl]amino}propanoic acid] are “(0.92)” and 8.64.
As for `CCC[C@H](NC(=O)Nc1ccc(Br)cc1)C(=O)NCC(=O)OC(C)C` [Compound 24, isopropyl {[(2S)-2-{[(4-bromophenyl)carbamoyl]amino}-pentanoyl]amino}acetate], the “FPRL-1 Ga16-CHO (Rel. eff.)” value is given as “(1.04)” and the pEC50 was 7.85.
The corresponding values for `CC(C)C[C@H](NC(=O)Nc1ccc(Br)cc1)C(=O)N[C@@H](C)C(=O)OC(C)(C)C` [Compound 41] are “(0.96)” and 6.83.
The corresponding values for `O=C(O)CNC(=O)C(Cc1c[nH]cn1)NC(=O)Nc1ccc(Br)cc1` (stereo not drawn) [Compound 85, {[2-{[(4-bromophenyl)carbamoyl]amino}-3-(1H-imidazol-4-yl)propanoyl]amino}acetic acid] are “(0.95)” and 8.00.
Take `CCC[C@H](NC(=O)[C@H](CC(C)C)NC(=O)Nc1ccc(Br)cc1)C(=O)O` [Compound 51, (2S)-2-{[(2S)-2-{[(4-bromophenyl)carbamoyl]amino}-4-methylpentanoyl]amino}pentanoic acid]: the “FPRL-1 Ga16-CHO (Rel. eff.)” value was “(0.89)” and the pEC50 was 9.00.
For `CCC[C@H](NC(=O)Nc1ccc(Br)cc1)C(=O)NCC(=O)O` [Compound 5, {[(2S)-2-{[(4-bromophenyl)carbamoyl]amino}pentanoyl]amino}acetic acid], the “FPRL-1 Ga16-CHO (Rel. eff.)” value is given as “(0.91)” and the pEC50 was 8.49.
The corresponding values for `CC(C)C[C@H](NC(=O)Nc1ccc(Br)cc1)C(=O)N[C@H](C(=O)OC(C)(C)C)C(C)C` [Compound 42, tert-butyl(2S)-2-{[(2S)-2-{[(4-bromophenyl)carbamoyl]amino}-4-methylpentanoyl]amino}-3-methylbutanoate] are “(0.98)” and 7.17.
The corresponding values for `CC(C)C[C@H](NC(=O)Nc1ccc(Br)cc1)C(=O)NCC(N)=O` [Compound 32, (2S)-N-(2-amino-2-oxoethyl)-2-{[(4-bromophenyl)carbamoyl]amino}-4-methylpentanamide] are “(1.08)” and 8.98.
The corresponding values for `CC(C)C[C@H](NC(=O)Nc1ccc(Br)cc1)C(=O)NCC(=O)OC(C)(C)C` [Compound 25, tert-butyl {[(2S)-2-{[(4-bromophenyl)carbamoyl]amino}-4-methylpentanoyl]amino}acetate] are “(0.85)” and 6.85.
With `CC(C)C[C@H](NC(=O)Nc1ccc(Br)cc1)C(=O)NCC(C)(C)O` [Compound 47, (2S)-2-{[(4-bromophenyl)carbamoyl]amino}-N-(2-hydroxy-2-methylpropyl)-4-methylpentanamide], the pEC50 is 8.68.
For the compound `CC(C)(C)OC(=O)CNC(=O)[C@H](CCS(C)(=O)=O)NC(=O)Nc1ccc(Br)cc1` [Compound 81, tert-butyl {[(2S)-2-{[(4-bromophenyl)carbamoyl]amino}-4-(methylsulfonyl)butanoyl]amino}acetate], the “FPRL-1 Ga16-CHO (Rel. eff.)” value is “(0.97)” and the pEC50 was 5.91.
For `CCC(CC)(NC(=O)Nc1ccc(Br)cc1)C(=O)NCC(=O)OC(C)(C)C` [Compound 57, tert-butyl {[2-{[(4-bromophenyl)carbamoyl]amino}-2-ethylbutanoyl]amino}acetate], in that order: “(1.03)” and 7.51.
The corresponding values for `CC[C@H](C)[C@H](NC(=O)Nc1ccc(Br)cc1F)C(=O)NCC(N)=O` [Compound 29, (2S,3S)-N-(2-amino-2-oxoethyl)-2-{[(4-bromo-2-fluorophenyl)carbamoyl]amino}-3-methylpentanamide] are “(1.00)” and 8.00.
As to `CCC(CC)(NC(=O)Nc1ccc(Br)cc1)C(=O)NCC(=O)O` [Compound 58, {[2-{[(4-bromophenyl)carbamoyl]amino}-2-ethylbutanoyl]amino}acetic acid], the “FPRL-1 Ga16-CHO (Rel. eff.)” value is “(1.04)” and the pEC50 is 7.72.
The corresponding values for `O=C(Nc1ccc(Br)cc1F)N[C@@H](Cc1ccccc1)C(=O)NCCO` [Compound 19, (2S)-2-{[(4-bromo-2-fluorophenyl)carbamoyl]amino}-N-(2-hydroxyethyl)-3-phenylpropanamide] are “(0.98)” and 7.80.
The corresponding values for `CC(C)(C)OC(=O)CNC(=O)C(Cc1c[nH]cn1)NC(=O)Nc1ccc(Br)cc1` (stereo not drawn) [Compound 84, tert-butyl {[2-{[(4-bromophenyl)carbamoyl]amino}-3-(1H-imidazol-4-yl)propanoyl]amino}acetate] are “(0.95)” and 6.58.
